The results in this text go back to ChEMBL document CHEMBL5030565, “Stapled Peptides Targeting SARS-CoV-2 Spike Protein HR1 Inhibit the Fusion of Virus to Its Cell Receptor” (J Med Chem, 2021).

For series [1], the system named is SARS-CoV-2. Kind of series: Antiviral activity against pseudotyped SARS-CoV-2 infected in Huh7 cells expressing hACE2 at 10 uM preincubated for 1 hr followed by cell infection measured after 2 days by bright-Glo luciferase assay. The series is classed as functional, Severe acute respiratory syndrome coronavirus 2, Huh-7. Particulars: time 49 hrs.
Series [2] deals with SARS-CoV-2. Kind of series: Antiviral activity against pseudotyped SARS-CoV-2 infected in Calu-3 cells at higher concentration. Type of series: functional, organism-based. As to conditions: Severe acute respiratory syndrome coronavirus 2.
For series [3], the system named is SARS-CoV-2. Kind of series: Antiviral activity against SARS-CoV-2 infected in Vero E6 cells assessed as reduction in viral replication at 12.5 uM preincubated for 30 mins followed by viral infection measured after 72 hrs by crystal violet staining based plaque assay. Type of series: functional, Severe acute respiratory syndrome coronavirus 2. Also noted: scale not given: the % may be the effect or the level left.

Series [4] concerns SARS-CoV-2. The experiment in a line: Antiviral activity against pseudotyped SARS-CoV-2 infected in Huh7 cells expressing hACE2 preincubated for 1 hr followed by cell infection measured after 2 days by bright-Glo luciferase assay. The series is classed as functional, organism-based. Particulars: Severe acute respiratory syndrome coronavirus 2, Huh-7.
Series [5] relates to SARS-CoV-2. The experiment in a line: Antiviral activity against SARS-CoV-2 infected in Vero E6 cells assessed as reduction in viral replication preincubated for 30 mins followed by viral infection measured after 72 hrs by crystal violet staining based plaque assay. The series is classed as functional, organism-based. Particulars: Severe acute respiratory syndrome coronavirus 2, Vero C1008.

Series [6] deals with Spike glycoprotein (Severe acute respiratory syndrome coronavirus 2) (UniProt P0DTC2). The experiment in a line: Inhibition of SARS-CoV-2 spike glycoprotein expressed in HEK293T cells transfected with pAAV-CAG-HnCovS-RFP assessed as inhibition of membrane fusion to Huh-7 cells expressing hACE2 at 30 uM measured after 4 hrs by cell-cell fusion based fluorescence assay. Type of series: functional.

The target in series [7] is chymotrypsin (Homo sapiens, UniProt P17538+P40313+Q6GPI1+Q99895). The experiment in a line: Stability of the compound in PBS at pH 7.4 assessed as chymotrypsin (unknown origin)-mediated proteolysis by measuring remaining compound after 12 hrs by HPLC analysis. Particulars: read-out: Stability. Type of series: ADME, protein assay.

The source made the active and inactive calls. The calls are words filed in the database; no cut-off is given here. Bounds are passed on as bounds.

The term EC50 denotes the concentration at which the effect is half-maximal. Take `CC[C@H](C)[C@H](NC(=O)CNC(=O)[C@H](CO)NC(=O)[C@@H](NC(=O)[C@H](CC(=O)O)NC(C)=O)[C@@H](C)CC)C(=O)N[C@@H](CC(N)=O)C(=O)N[C@@H](C)C(=O)N[C@@H](CO)C(=O)N[C@H](C(=O)N[C@H](C(=O)N[C@@H](CC(N)=O)C(=O)N[C@H](C(=O)N[C@@H](CCC(N)=O)C(=O)N[C@@H](CCCCN)C(=O)N[C@@H](CCC(=O)O)C(=O)N[C@H](C(=O)N[C@@H](CC(=O)O)C(=O)N[C@@H](CCCNC(=N)N)C(=O)N[C@@H](CC(C)C)C(=O)N[C@@]1(C)CCC/C=C\CCC[C@@](C)(C(=O)N[C@@H](CC(N)=O)C(=O)N[C@@H](CC(C)C)C(=O)N[C@@H](CC(N)=O)C(=O)N[C@@H](CCC(=O)O)C(=O)N[C@@H](CO)C(=O)N[C@@H](CC(C)C)C(=O)N[C@H](C(=O)N[C@@H](CC(=O)O)C(=O)N[C@@H](CC(C)C)C(=O)N[C@@H](CCC(N)=O)C(=O)N[C@@H](CCC(=O)O)C(=O)N[C@@H](CC(C)C)C(N)=O)[C@@H](C)CC)NC(=O)[C@H](C)NC(=O)[C@H](C(C)C)NC(=O)[C@H](CCC(=O)O)NC1=O)[C@@H](C)CC)[C@@H](C)CC)C(C)C)C(C)C`: the results for the Activity in series [1] and in series [3] were 69.7% and 55%, respectively. In addition, the result in series [2] was Active. Moreover, the EC50 came out at 4.05 µM in series [4] and 6.56 µM in series [5]. For the same compound, in series [6], the inhibition result is “Active”. Besides, the remaining at 12 h in series [7] was greater than 80%.
